Values quoted from earlier work, collected in US20250333423A1, “SMALL MOLECULE MODULATORS OF GP130 SIGNALING PATHWAYS” (CarthroniX, Inc., priority 2022, published 2025).

What was measured:
gp130 = molecular target: T1, gp130 (Homo sapiens, UniProt P40189)
T1 sequence (P40189 23-918): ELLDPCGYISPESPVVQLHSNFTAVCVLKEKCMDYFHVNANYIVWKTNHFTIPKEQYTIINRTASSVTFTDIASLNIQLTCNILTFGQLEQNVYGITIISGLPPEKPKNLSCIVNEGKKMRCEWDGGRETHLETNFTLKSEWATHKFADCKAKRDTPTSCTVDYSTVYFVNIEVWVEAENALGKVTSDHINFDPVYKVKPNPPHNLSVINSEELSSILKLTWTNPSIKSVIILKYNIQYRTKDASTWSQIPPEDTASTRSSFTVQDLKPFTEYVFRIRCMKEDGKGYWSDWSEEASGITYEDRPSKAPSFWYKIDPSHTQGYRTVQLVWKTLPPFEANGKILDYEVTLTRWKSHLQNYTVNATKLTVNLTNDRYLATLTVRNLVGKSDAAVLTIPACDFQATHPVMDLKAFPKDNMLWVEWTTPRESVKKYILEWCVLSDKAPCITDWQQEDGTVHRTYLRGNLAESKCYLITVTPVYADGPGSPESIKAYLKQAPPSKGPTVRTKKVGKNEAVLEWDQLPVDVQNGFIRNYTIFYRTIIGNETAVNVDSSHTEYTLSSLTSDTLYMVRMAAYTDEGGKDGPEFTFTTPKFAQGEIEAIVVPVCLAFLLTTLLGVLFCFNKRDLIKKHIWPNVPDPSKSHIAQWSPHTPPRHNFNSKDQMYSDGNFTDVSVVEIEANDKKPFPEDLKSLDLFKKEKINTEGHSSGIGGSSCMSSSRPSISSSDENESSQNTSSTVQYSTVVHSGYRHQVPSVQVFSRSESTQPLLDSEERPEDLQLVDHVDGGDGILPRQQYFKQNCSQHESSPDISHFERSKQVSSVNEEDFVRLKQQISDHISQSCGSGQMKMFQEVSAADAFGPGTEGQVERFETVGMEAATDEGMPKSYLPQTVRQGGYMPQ

Brc1ccc(Nc2nc(-c3ccccc3)cs2)cc1 [RCGD 423]
prevention of cartilage degeneration (rat model of OA): remarkable ability to prevent cartilage degeneration
interaction with gp130 (gp130; in vitro): interacts with the extracellular region of gp130
formation of gp130 homodimers (gp130; ligand-independent): promotes the formation of active, ligand-independent gp130 homodimers
